Experimental data reported in patent publication US10201556B2, “Combination for use in treating diseases or conditions associated with melanoma, or treating diseases or conditions associated with activated B-raf pathway” (InteRNA Technologies B.V., priority 2012, dated 2019).

Legend:
Format in all cases: cell-based
[1] = system: A375Hu-R1 (vemurafenib resistant clone of A375Hu); test: Anti-proliferative effect of small molecules, MTS assay; conditions: Homo sapiens, A375Hu-R1 (A375-R), in vitro acquired resistance, 72 hours
Experimental: The anti-proliferative effect of small molecules in melanoma cell lines was determined with V600E BRAF inhibitor, vemurafenib (PLX-4032, 51267, Selleck) and MEK inhibitor, selumetinib (AZD-6244, S1008, Selleck). For each cell line optimal growth conditions were determined prior to the experiment. Cells were plated in a 96-well plate at 3000 cells per well (100 uL) and were grown at 37 C, 5% CO2. Small molecule mix (50 uL per well) was made for each concentration in medium. Cells were treated in triplicate 24 hours after plating. After 72 hours medium was replaced and viability was measured with the MTS assay (Promega) according to manufacturer's instructions. Cell viability inhibition is normalized against loading control (0.1% DMSO) and GraphPad Prism was used to fit the curve and calculate GI50 values.
The A375Hu melanoma cell line was used to make a vemurafenib (PLX-4032) resistant sub line. A375Hu cells were plated at low density in 96-well plates and exposed to 1 uM PLX-4032. Cell growth was monitored until clonal growth was observed. Wells with clonal growth (approximately 5%) were replated in a 96-well plate and exposed to 1 uM PLX-4032. The 10 best growing clones were replated in 6-well plates in 1 uM PLX-4032 and the three best growing clones were used for further culturing. Clone number 1 (A375Hu-R1) grew best with 1 uM PLX-4032 and was chosen for additional experiments.

[2] = system: RPMI-7951 melanoma cell line; test: Anti-proliferative effect of miRNA mimics, MTS assay; conditions: 10 nM mimic, 72 hours after transfection
Experimental: (§1) The anti-proliferative effect of miRNA's in melanoma cell lines was determined with mature miRNA mimics from Ambion. For each cell line optimal growth and transfection conditions were determined prior to the experiment. Cells were plated in a 96-well plate at 3000 cells per well (100 uL) and were grown at 37 C, 5% CO2. Transfection mix (20 uL per well) was made for each miRNA mimic concentration with 0.3 uL (M249, M249-R4) or 0.5 uL (A375Hu, A375Hu-R1, A2058, RPMI-7951) X-TremeGene (Roche) per well (according to manufacturer's instructions) in Optimem (Invitrogen). Cells were transfected 24 hours after plating in triplicate. Medium was replaced 48 hours after transfection with fresh medium.

A2058 melanoma cell line = test: as above; conditions: 10 nM mimic, 72 hours after transfection
Experimental: as §1

[3] = system: M249-AR (M249-R4) melanoma cell line; test: as above; conditions: 30 nM mimic, 72 hours after transfection
Experimental: as §1

M249 melanoma cell line = test: as above; conditions: 5 nM mimic, 72 hours after transfection
Experimental: as §1

3′UTR of RRM2 = test: 3′UTR Luciferase assay in HeLa cells; conditions: 10 nM mimic, 24 hrs
Experimental: (§2) The 3′UTR sequences (Table 11) were synthesized by IDT Technologies, and cloned into psiCHECK™-2 (Promega). HeLa cells (5×10^4) were seeded in 24-well plates, and the next day transfected with 100 ng/well 3′UTR psiCHECK™-2 construct and 10 nM miR-3157 mimics, or control miRNA using Lipofectamine 2000 Transfection Reagent (Invitrogen). After 24 hrs cells were lysed using Passive Lysis Buffer and luciferase activity was measured using the Dual-Luciferase Reporter Assay System (Promega) and the Glomax-Multi Detection system (Promega) in a 96-well format according to the manufacturer's protocol. The Renilla luciferase signal was normalized to background Firefly luciferase, and changes in Renilla luciferase activity in the miR-3157 transfected cells calculated relative to the Renilla signal in control mimic transfected cells.

3′UTR of ERK1 = test: 3′UTR Luciferase assay in HeLa cells; conditions: 10 nM mimic, 24 hrs
Experimental: as §2

3′UTR of AURKB = test: 3′UTR Luciferase assay in HeLa cells; conditions: 10 nM mimic, 24 hrs
Experimental: as §2

[4] = system: BRAFV600E mutant melanoma cell lines A2058, RPMI-7951 and M233; test: MTS cell viability after miR-3157 mimic transfection, intrinsically resistant lines; conditions: A2058, RPMI-7951, M233; 10 nM mimic, 72 hours (FIG. 11b)
Experimental: miR-3157 broadly affects melanoma cell line viability. Melanoma cell lines were divided into those that have the BRAFV600E mutation and are sensitive (a), intrinsically resistant (b) or acquired resistance to vemurafenib (c). Cell lines were transfected in triplicate with control miRNA or miR-3157 mimics (10 nM; n=2). Mock is transfectant only. Cell viability was determined using the MTS assay and calculated relative to mock transfected cells.
A375 cells were obtained from the Hubrecht Institute (Utrecht, The Netherlands); SKMEL-28, A2058 and RPMI-7951 were from the ATCC; SKMEL-57 was a gift from Dr. Patricia Groenen (Radboud University Nijmegen Medical Centre, The Netherlands); for cell line characteristics of M249, M249-AR4, M233 and M376 see (Atefi et al. 2011). A375-R, with in vitro acquired resistance to vemurafenib, was established in our lab by clonal selection of cells continually exposed to 1 μM vemurafenib. A375, A375-R, SKMEL-28, A2058 and SKMEL-57 were grown in DMEM GlutaMAX™-I (Gibco®), all other cell lines in RPMI-1640 (Gibco®). Media was supplemented with 10% FBS (Sigma), and cells were maintained in a humidified 37° C. incubator (Thermo Scientific) with 5% CO2. […]
Cells were seeded in 96-well plates and transfected the next day. […] Read-out was performed at 490 nm on a Multiskan FC plate reader (Thermo Scientific) at 72 hours post transfection.

Question: How did the GI50 [1] turn out when CCCS(=O)(=O)Nc1ccc(F)c(C(=O)c2c[nH]c3ncc(-c4ccc(Cl)cc4)cc23)c1F [Vemurafenib, N-(3-{[5-(4-chlorophenyl)-1H-pyrrolo[2,3-b]pyridin-3-yl]carbonyl}-2,4-difluorophenyl)propane-1-sulfonamide] was run?
Answer: > 10 µM

Question: With “hsa-miR-3157-5p: mature miRNA mimic, SEQ ID NO 6 UUCAGCCAGGCUAGUGCAGUCU (listed as RNA, chemistry not given here)” as the compound, how does the “RPMI-7951 % Viability 10 nM” value [2] read?
Answer: 26%

Question: And the “A2058 % Viability 10 nM” value (A2058 melanoma cell line)?
Answer: 43%

Question: What about the “M249-AR % Viability 30 nM” value [3] of the same compound?
Answer: 53%

Question: And the “M249 % Viability 5 nM” value (M249 melanoma cell line)?
Answer: 42%

Question: What about the “luciferase activity, RRM2 3′UTR with mutated miR-3157 binding site” value (3′UTR of RRM2) of the same compound?
Answer: remained unaffected

Question: And the “luciferase activity, RRM2 3′UTR unmodified” value (3′UTR of RRM2; relative to control mimic)?
Answer: reduced luciferase activity

Question: And the “luciferase activity, ERK1 3′UTR with mutated miR-3157 binding site” value (3′UTR of ERK1)?
Answer: remained unaffected

Question: And the “luciferase activity, ERK1 3′UTR unmodified” value (3′UTR of ERK1; relative to control mimic)?
Answer: reduced luciferase activity

Question: What about the “luciferase activity, AURKB 3′UTR with mutated miR-3157 binding site” value (3′UTR of AURKB) of the same compound?
Answer: remained unaffected

Question: What about the “luciferase activity, AURKB 3′UTR unmodified” value (3′UTR of AURKB; relative to control mimic) of the same compound?
Answer: reduced luciferase activity

Question: What about the “cell viability relative to mock transfected cells” value [4] of the same compound?
Answer: viability was reduced
